Legend:
[1] = tested on: HCC827 (exon 19 deletion mutation); assay: Cell antiproliferative assay (CTG, 72 h), HCC827; type: cell-based, human
Procedure, shortened: (§1)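 Viability by CTG luminescence after 72 h compound exposure, normalised between blank medium and 0.1% DMSO controls, with IC50 from fitted curves. Dosing in triplicate, top 10,000 nM, 4-fold dilutions, applied about 24 h after plating 1500-2500 cells per well.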

[2] = tested on: PC-9 (EGFR exon 19 deletion); assay: Cell antiproliferative assay (CTG, 72 h), PC-9; type: cell-based, human
Procedure, shortened: as §1

[3] = tested on: H1975 (EGFR L858R/T790M double mutation); assay: Cell antiproliferative assay (CTG, 72 h), H1975; type: cell-based, human
Procedure, shortened: as §1

EGFR = target: T1, EGFR (Homo sapiens, UniProt P00533, DEL746-750); assay: EGFR PROTAC In Cell Western assay in HCC827; type: cell-based; conditions: HCC827, EGFR degradation, 16 hours of incubation
T1 construct: host or cells: HCC827
Text: Test Example 2 EGFR PROTAC in Cell Western Assay
HCC827 cell culture medium was purchased from Corning. Cell line HCC827 was purchased from BeNa Culture Collection; EGF Receptor (D38B1) XP Rabbit mAb antibody and β-Actin (8H10D10) Mouse mAb antibody were from CST. IRDye 800CW, IRDye 680RD, and Intercept blocking solution (PBS) were purchased from Licor. Triton-100 was purchased from sigma, and 96-well black cell culture imaging microtiter plates were purchased from Agilent.
1) HCC827 cells were cell counted and cells were inoculated into 96-well black cell culture imaging microtiter plates at a density of 40,000 cells per well, with 100 μl per well. The plate was incubated overnight in a CO2 incubator.
2) Day 1: A gradient dilution of the compound to be tested was added to the cells of the culture plate (with a starting concentration of […], 9 concentrations, a dilution ratio of 1:3, 2 duplicate wells), with a final concentration of DMSO being 0.5%, and a blank control of DMSO without compound. The plate was placed in the cell culture incubator for a final 16 hours of incubation.
3) The culture medium was removed from the 96 wells with a pipette and the residual medium was washed with […] of PBS per well on a shaker for 5 min. After the removal of PBS, cells were quickly fixed by adding 150 μl of fresh fixation buffer (3.7% paraformaldehyde) and incubated for 20 min at room temperature.
4) The fixation buffer was removed and […] of Triton elution buffer (0.3% Triton-100) was added to wash for four times on a shaker for 5 minutes each time.
5)[…] LI-COR Odyssey blocking solution was added and the cells were incubated for 1.5 hours at room temperature with slow shaking on a shaker.
6) To block the samples, a primary antibody against EGFR and Actin were prepared using Antibody Dilution Buffer at a ratio of 1:300. The blocking solution was poured out and the diluted primary antibody was added (at a total volume of 50 μl/per well). The cell plate was covered and incubated at 4° C. overnight.
7) The cell plate was washed four times with PBS+Triton X-100 for 5 minutes each time.
8) Fluorescently labeled secondary antibodies IRDye® 680RD and IRDye® 800CW were diluted with Antibody Dilution Buffer (with a ratio of 1:600, at a total volume of 50 μl/well) and then incubated for one hour at room temperature, protected from light.
9) The cell plate was washed four times with PBS+Triton X-100 for 5 minutes each time.
After pipetting the PBS thoroughly, the plate was inverted and imaged on a Burroughs imager. A multiple exposure program was selected, IRDye 680RD Blot was chosen for the first channel, and IRDye 800CW Blot was chosen for the second channel. […] The blank group was the DMSO group, EGFR/Actin was calculated as the EGFR value of the corresponding sample wells, and the degradation rate=100-100*EGFR signal/DMSO signal. The DC50 and Dmax of the degraded EGFR proteins were calculated by fitting curves using the Prism software, 3-parameter method.

[4] = Homo sapiens, HCC827, 72 h, Table 2, HCC827 cells
[5] = Homo sapiens, HCC827, 72 h, Table 3, HCC827 cells
[6] = Homo sapiens, PC-9, 72 h, Table 2, PC-9 cells
[7] = Homo sapiens, PC-9, 72 h, Table 3, PC-9 cells
[8] = Homo sapiens, NCI-H1975, 72 h, Table 2, H1975 cells
[9] = Homo sapiens, NCI-H1975, 72 h, Table 3, H1975 cells

T1 sequence (P00533 with tags, fused parts or gaps DEL746-750): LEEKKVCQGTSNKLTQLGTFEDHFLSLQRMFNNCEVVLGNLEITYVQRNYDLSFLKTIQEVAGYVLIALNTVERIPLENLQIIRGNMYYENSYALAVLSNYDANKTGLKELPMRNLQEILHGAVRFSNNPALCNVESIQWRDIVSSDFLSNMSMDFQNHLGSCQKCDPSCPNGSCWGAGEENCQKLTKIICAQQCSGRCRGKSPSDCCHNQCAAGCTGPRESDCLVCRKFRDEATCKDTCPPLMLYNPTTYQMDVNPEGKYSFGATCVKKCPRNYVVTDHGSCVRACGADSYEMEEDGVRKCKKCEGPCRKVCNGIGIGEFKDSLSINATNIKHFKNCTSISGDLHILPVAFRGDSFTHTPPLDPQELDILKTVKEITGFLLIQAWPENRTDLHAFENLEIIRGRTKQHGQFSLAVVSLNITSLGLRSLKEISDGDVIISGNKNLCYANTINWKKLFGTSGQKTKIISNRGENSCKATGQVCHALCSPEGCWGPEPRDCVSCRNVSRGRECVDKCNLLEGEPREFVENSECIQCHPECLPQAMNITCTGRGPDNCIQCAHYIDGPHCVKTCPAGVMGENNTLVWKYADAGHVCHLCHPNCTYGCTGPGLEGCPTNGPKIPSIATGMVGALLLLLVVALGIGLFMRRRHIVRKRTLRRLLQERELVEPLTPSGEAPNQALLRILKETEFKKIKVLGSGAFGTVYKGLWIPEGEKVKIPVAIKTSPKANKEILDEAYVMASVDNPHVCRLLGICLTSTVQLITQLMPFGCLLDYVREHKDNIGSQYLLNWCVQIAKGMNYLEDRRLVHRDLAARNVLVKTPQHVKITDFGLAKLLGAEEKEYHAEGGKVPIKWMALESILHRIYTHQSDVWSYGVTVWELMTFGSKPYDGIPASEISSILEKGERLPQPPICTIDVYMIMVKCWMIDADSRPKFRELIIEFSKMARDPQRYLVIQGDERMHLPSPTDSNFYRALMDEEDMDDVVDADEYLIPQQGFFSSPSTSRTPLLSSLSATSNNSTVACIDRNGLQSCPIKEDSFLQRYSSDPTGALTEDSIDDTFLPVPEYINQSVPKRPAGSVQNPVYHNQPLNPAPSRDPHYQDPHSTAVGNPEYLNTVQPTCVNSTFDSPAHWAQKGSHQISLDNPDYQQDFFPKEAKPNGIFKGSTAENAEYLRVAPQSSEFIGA

Row | SMILES | IC50 [1, 4] | IC50 [1, 5] | IC50 [2, 6] | IC50 [2, 7] | IC50 [3, 8] | IC50 [3, 9] | Dmax (EGFR; HCC827, Table 4) | Dmax (EGFR; HCC827, Table 5) | DC50 (EGFR; Table 4) | DC50 (EGFR; Table 5) | IC50 ([1]; Table 2, HCC827 cells) | IC50 ([2]; Table 2, PC-9 cells) | IC50 ([3]; Table 2, H1975 cells) | Dmax(%) (EGFR; Table 4)
1 | CNC(=O)c1ccccc1Nc1nc(Nc2ccc(N3CCN(C(=O)CN4CCC(c5ccc(NC6CCC(=O)NC6=O)cc5)CC4)CC3)cc2OC)ncc1Br (centres unmarked) [Compound T-185] | 10 to 100 nM |  | 100 to 1000 nM |  | ≤ 10 nM |  | 70 to 100% |  | ≤ 10 nM |  |  |  |  | 
2 | CC(=O)c1ccccc1Nc1nc(Nc2ccc(N3CCN(C(=O)CN4CCC(c5ccc(NC6CCC(=O)NC6=O)cc5)CC4)CC3)cc2Cl)ncc1Cl (centres unmarked) [Compound T-333] | 100 to 1000 nM |  | 100 to 1000 nM |  | 100 to 1000 nM |  | < 50% |  | 10 to 100 nM |  |  |  |  | 
3 | COc1cc(N2CCC(N3CCN(C(=O)CCCCN4CCN(c5ccc6c(c5)C(=O)N(C5CCC(=O)NC5=O)C6=O)CC4)CC3)CC2)ccc1Nc1ncc(Cl)c(Nc2ccccc2C(C)=O)n1 (centres unmarked) [Compound T-221] | ≥ 1000 nM |  | ≥ 1000 nM |  | 100 to 1000 nM |  | < 50% |  | 100 to 1000 nM |  |  |  |  | 
4 | COc1cc(N2CCN(C(=O)CN3CCC(c4ccc(NC5CCC(=O)NC5=O)cc4)CC3)CC2)ccc1Nc1ncc(Cl)c(Nc2ccccc2C(=O)C(C)C)n1 (centres unmarked) [Compound T-190] | 100 to 1000 nM |  | 100 to 1000 nM |  | 10 to 100 nM |  | 50 to 70% |  | ≥ 1000 nM |  |  |  |  | 
5 | CNC(=O)c1ccccc1Nc1nc(Nc2ccc(N3CCN(C(=O)CN4CCC(c5ccc(NC6CCC(=O)NC6=O)cc5)CC4)CC3)cc2OC)ncc1Cl (centres unmarked) [Compound T-184] | 10 to 100 nM | 14.2 nM | 100 to 1000 nM | 122 nM | ≤ 10 nM | 7.72 nM | 70 to 100% | 70.8% | 10 to 100 nM | 10.2 nM |  |  |  | 
6 | COc1cc(N2CCN(C(=O)CN3CCC(c4ccc(NC5CCC(=O)NC5=O)cc4)CC3)CC2)c(C)cc1Nc1ncc(Cl)c(Nc2ccccc2C(C)=O)n1 (centres unmarked) [Compound T-57] | 100 to 1000 nM |  | 100 to 1000 nM |  | 10 to 100 nM |  | 50 to 70% |  | 10 to 100 nM |  |  |  |  | 
7 | C=CC(=O)Nc1cc(Nc2ncc(Cl)c(Nc3ccccc3C(C)=O)n2)c(OC)cc1N1CCN(C(=O)CN2CCC(c3ccc(NC4CCC(=O)NC4=O)cc3)CC2)CC1 (centres unmarked) [Compound T-91] | 10 to 100 nM |  | 100 to 1000 nM |  | 10 to 100 nM |  | 50 to 70% |  | 10 to 100 nM |  |  |  |  | 
8 | COc1cc(N2CCN(C(=O)CN3CCC(c4ccc(NC5CCC(=O)NC5=O)cc4)CC3)CC2)c(-c2cnn(C)c2)cc1Nc1ncc(Cl)c(Nc2ccccc2C(C)=O)n1 (centres unmarked) [Compound T-233] | 10 to 100 nM |  | 100 to 1000 nM |  | 10 to 100 nM |  | 50 to 70% |  | 10 to 100 nM |  |  |  |  | 
9 | COc1cc(N2CCN(C(=O)CN3CCC(c4ccc(NC5CCC(=O)NC5=O)cc4)CC3)CC2)ccc1Nc1ncc(Cl)c(Nc2ccccc2C(=O)N(C)C)n1 (centres unmarked) [Compound T-198] | 100 to 1000 nM |  | 100 to 1000 nM |  | ≤ 10 nM |  | 50 to 70% |  | ≤ 10 nM |  |  |  |  | 

The next lines start with the values.

Row | IC50 [1, 4] | IC50 [1, 5] | IC50 [2, 6] | IC50 [2, 7] | IC50 [3, 8] | IC50 [3, 9] | Dmax (EGFR; HCC827, Table 4) | Dmax (EGFR; HCC827, Table 5) | DC50 (EGFR; Table 4) | DC50 (EGFR; Table 5) | IC50 ([1]; Table 2, HCC827 cells) | IC50 ([2]; Table 2, PC-9 cells) | IC50 ([3]; Table 2, H1975 cells) | Dmax(%) (EGFR; Table 4) | SMILES
10 | 100 to 1000 nM | 221 nM | ≥ 1000 nM | 1940 nM | 100 to 1000 nM | 186 nM | 50 to 70% | 64.7% | 10 to 100 nM | 22.3 nM |  |  |  |  | COc1cc(N2CCC(N3CCN(C(=O)C4CCN(CC5CCN(c6ccc7c(c6)C(=O)N(C6CCC(=O)NC6=O)C7=O)CC5)CC4)CC3)CC2)ccc1Nc1ncc(Cl)c(Nc2ccccc2P(C)(C)=O)n1 (centres unmarked) [Comparative Compound 2, reference compound]
11 | 100 to 1000 nM |  | 100 to 1000 nM |  | 100 to 1000 nM |  | < 50% |  | 10 to 100 nM |  |  |  |  |  | COc1cc(N2CCC(NC(=O)CN3CCC(c4ccc(NC5CCC(=O)NC5=O)cc4)CC3)CC2)ccc1Nc1ncc(Cl)c(Nc2ccccc2C(C)=O)n1 (centres unmarked) [Compound T-336]
12 | 100 to 1000 nM |  | 100 to 1000 nM |  | 100 to 1000 nM |  | 50 to 70% |  | 10 to 100 nM |  |  |  |  |  | COc1cc(N2CCN(C(=O)CN3CCN(c4ccc(NC5CCC(=O)NC5=O)nc4)CC3)CC2)ccc1Nc1ncc(Cl)c(Nc2ccccc2C(C)=O)n1 (centres unmarked) [Compound T-101]
13 | 100 to 1000 nM |  | 100 to 1000 nM |  | 10 to 100 nM |  | 70 to 100% |  | 10 to 100 nM |  |  |  |  |  | COc1cc(N2CCN(C(=O)CN3CCN(c4ccc(NC5CCC(=O)NC5=O)cc4)CC3)CC2)ccc1Nc1ncc(Br)c(Nc2ccccc2C(C)=O)n1 (centres unmarked) [Compound T-84]
14 | 10 to 100 nM |  | 10 to 100 nM |  | ≤ 10 nM |  | 70 to 100% |  | ≤ 10 nM |  |  |  |  |  | COc1cc(N2CCN(C(=O)CN3CCC(c4ccc(NC5CCC(=O)NC5=O)cc4)CC3)CC2)ncc1Nc1ncc(C(F)(F)F)c(Nc2ccccc2C(C)=O)n1 (centres unmarked) [Compound T-246]
15 | 100 to 1000 nM |  | 100 to 1000 nM |  | 10 to 100 nM |  | 70 to 100% |  | ≤ 10 nM |  |  |  |  |  | COc1cc(N2CCN(C(=O)CN3CCC(c4ccc(NC5CCC(=O)NC5=O)cc4)CC3)CC2)ccc1Nc1ncc(Cl)c(Nc2ccccc2P(C)(C)=O)n1 (centres unmarked) [Compound T-13]
16 | 100 to 1000 nM | 110 nM | 100 to 1000 nM | 324 nM | 10 to 100 nM | 34.3 nM | 70 to 100% | 70.5% | 10 to 100 nM | 15.6 nM |  |  |  |  | COc1cc(N2CCN(C(=O)CN3CCC(c4ccc(NC5CCC(=O)NC5=O)cc4)CC3)CC2)ccc1Nc1ncc(Cl)c(Nc2ccccc2C(C)=O)n1 (centres unmarked) [Compound T-12]
17 | 100 to 1000 nM |  | ≥ 1000 nM |  | 100 to 1000 nM |  | 50 to 70% |  | 100 to 1000 nM |  |  |  |  |  | COc1cc(N2CCC(N3CCN(C(=O)CN4CCC(c5ccc(NC6CCC(=O)NC6=O)cc5)CC4)CC3)CC2)ccc1Nc1ncc(Cl)c(Nc2ccccc2C(C)=O)n1 (centres unmarked) [Compound T-121]
18 |  |  |  |  |  |  |  |  | 10 to 100 nM |  | 100 to 1000 nM | 100 to 1000 nM | 10 to 100 nM | C (C<50%) | COc1cc(N2CCC(N(C)C(=O)CN3CCC(c4ccc(NC5CCC(=O)NC5=O)cc4)CC3)CC2)ccc1Nc1ncc(C(F)(F)F)c(Nc2ccccc2C(C)=O)n1 (centres unmarked) [Compound T-224]
19 | 100 to 1000 nM |  | 100 to 1000 nM |  | 100 to 1000 nM |  | < 50% |  | 100 to 1000 nM |  |  |  |  |  | COc1cc(C2CCN(C(=O)CN3CCC(c4ccc(NC5CCC(=O)NC5=O)cc4)CC3)CC2)ccc1Nc1ncc(Cl)c(Nc2ccccc2C(C)=O)n1 (centres unmarked) [Compound T-334]
